Experimental data as given in patent US20160058895A1, “RADIOLABELED GNRH ANTAGONISTS AS PET IMAGING AGENTS” (OSLO UNIVERSITETSSYKEHUS HF, priority 2013, published 2016).
Entries after “also recorded” stand apart in the source; their conditions may differ.

Key:
[1] = In vivo stability in rat blood and urine; conditions: for % Intact 18F-compound, Blood 1 h: rat blood; for % Intact 18F-compound, Urine 1 h: rat urine
Procedure: (§1) Serum and in vivo stability measurements were performed as follows. Approximately 5 MBq of ^18F compounds (e.g., peptides or small molecules) in PBS (50 μL) was added to freshly collected rat serum (0.4 mL) and samples were incubated at 37° C. in Eppendorf tubes. After 1 hour and 2 hours, ice-cold ethanol (400 μL) was added and the mixtures were centrifuged at 13,400 rpm for 10 minutes. The resulting supernatants were diluted with Solvent A and analyzed by radio-HPLC.
(§2) Also, the stabilities of the compounds were measured in rat serum and in vivo in rat blood and urine (Table 2). Table 2 provides the fraction (as a percentage of the initial amount) of compound remaining in serum, blood, or urine as a function of time (e.g., after 1 and 2 hours).

[2] = Octanol/water partition coefficient, PBS (pH 7.4)/n-octanol; type: physicochemical; conditions: phosphate-buffered saline (pH 7.4)/n-octanol, n=3
Procedure: Octanol/water partition coefficients were determined as follows. Approximately 10 kBq of ^18F-compounds in 50 μL PBS were diluted in 450 μL of PBS (pH 7.4) and added to 500 μL of n-octanol in an Eppendorf tube (n=3). After vortexing for 3 minutes, the tubes were centrifuged (10,300 rpm for 6 minutes) and 100 μL aliquots of the PBS and n-octanol phases were carefully transferred to separate tubes. The radioactivity of the samples was counted in a γ-counter.
Log P values were measured in a phosphate-buffered saline (pH 7.4)/n-octanol system.

[3] = Stability in rat serum at 37° C., radio-HPLC; type: in vitro ADME; conditions: for % Intact 18F-compound, Serum 1 h / % Intact 18F-compound, Serum 2 h: 37° C.
Procedure: (§3) During the development of embodiments of the technology provided herein, a competitive binding assay was used to measure the binding affinity to rat GnRH receptor of the two nonradioactive reference ^19F-compounds described above. Radiolabeling was performed from [^18F]fluoride using the corresponding mesylate and chloro-precursors using K[^18F]/K222 complex in DMSO. Log P values and serum stability were investigated and their brain uptake was studied by small animal PET imaging in healthy rats.
as §1, §2

[4] = target: T1, human type I GnRH receptor (Homo sapiens, UniProt P30968); assay: Radioligand binding, cell membranes expressing human type I GnRH receptor, [125I]Triptorelin; conditions: Ki ± SD, n=3; competition with [125I]Triptorelin; read-out: Receptor affinity Ki for the human GnRH receptor
T1 construct: purchased Merck Millipore
T1 sequence (P30968 1-328): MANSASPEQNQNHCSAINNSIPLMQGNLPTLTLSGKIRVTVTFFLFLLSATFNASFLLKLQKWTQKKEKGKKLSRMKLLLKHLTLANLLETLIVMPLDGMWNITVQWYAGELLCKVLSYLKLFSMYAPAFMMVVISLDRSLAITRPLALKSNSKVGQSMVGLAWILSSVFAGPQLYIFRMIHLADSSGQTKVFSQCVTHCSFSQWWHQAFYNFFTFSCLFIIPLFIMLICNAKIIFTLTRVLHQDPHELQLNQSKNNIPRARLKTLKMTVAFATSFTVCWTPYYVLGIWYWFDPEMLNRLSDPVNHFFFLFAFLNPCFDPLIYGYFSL
Procedure: Radioligand binding studies were performed with 0.18-0.32 nM [^125I]LHRH-[D-Trp^6]
Further, binding curves for of compounds SB-001-RS, SB-002-RS, SB-003-RS, and SB-004-RS for the human GnRH receptor in competition for [^125I]Triptorelin were measured (n=3) (FIG. 3).

[5] = target: T2, rat GnRH receptor (Rattus norvegicus, UniProt P30969); assay: Radioligand binding, membranes of HEK 293 cells expressing rat GnRH receptor, [125I] LH-RH Dtrp6
T2 construct: expressed in transfected cells; host or cells: HEK 293 cells (transient transfection, membranes prepared 48 h later)
T2 sequence (P30969 1-327): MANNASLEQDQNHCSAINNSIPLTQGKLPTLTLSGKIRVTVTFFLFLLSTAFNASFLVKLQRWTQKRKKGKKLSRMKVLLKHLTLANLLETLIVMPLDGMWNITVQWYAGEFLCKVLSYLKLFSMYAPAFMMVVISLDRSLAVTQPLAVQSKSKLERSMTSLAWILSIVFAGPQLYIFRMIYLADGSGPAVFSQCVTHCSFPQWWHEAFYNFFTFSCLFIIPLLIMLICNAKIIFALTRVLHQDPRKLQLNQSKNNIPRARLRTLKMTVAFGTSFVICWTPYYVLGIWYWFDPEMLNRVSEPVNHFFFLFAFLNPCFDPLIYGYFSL
Procedure: (§4) PSA was calculated using ChemBioDraw Ultra 12.0; Clog D was experimentally determined; Ki was determined by an in vitro assay in HEK 293 cells expressing rat GnRH receptor (see below); the radiochemical yield with respect to isotope decay was corrected based on the start of synthesis, and radiochemical purity was analyzed by Radio-HPLC.
For the membrane preparation and radioligand binding assays, HEK 293 cells were grown in Dulbecco's modified Eagle's medium with 10% fetal bovine serum, penicillin (100 U/ml), and streptomycin (100 μg/ml), and transiently transfected with rat GnRH receptor using LipofectAMINE 2000 (Invitrogen) according to the manufacturer's protocol. 48 hours later, membranes were prepared and radioligand binding was performed as previously described (see, e.g., Krobert et al (2001) “The cloned human 5-HT7 receptor splice variants: a comparative characterization of their pharmacology, function and distribution” Naunyn Schmiedebergs Arch Pharmacol 363(6): 620-32). Radioligand binding studies were performed with 0.18-0.32 nM [^125I] […]
as §4, with “In Table 1, PSA” for “PSA”, “receptor;” for “receptor (see below);”, “to” for “based on”, “Radio HPLC. […]” for “Radio-HPLC.”

[6] = Log D / Log P of pilot compounds, experimentally determined; type: physicochemical; conditions: for logP: n-octanol / phosphate-buffered saline, pilot 18F compounds
Procedure: as §4
as §4, with “In Table 1, PSA” for “PSA”, “receptor;” for “receptor (see below);”, “to” for “based on”, “Radio HPLC.” for “Radio-HPLC.”
as §3

[7] = Brain uptake by small animal PET imaging in healthy rats; type: in vivo, rat; conditions: for Brain uptake (in words): healthy rats
Source text: In particular, PET images (e.g., 90-minute summed PET images) of the brain of a Sprague-Dawley rat injected with an [^18F] compound according to an embodiment of the technology show accumulation of the compound in the central regions of the brain.
as §3

| Compound | % Intact 18F-compound, Blood 1 h [1] [%] | % Intact 18F-compound, Urine 1 h [1] [%] | logP [2] | % Intact 18F-compound, Serum 1 h ([3]; rat serum) [%] | % Intact 18F-compound, Serum 2 h ([3]; rat serum) [%] | Ki [4] [nM] | also measured |
| --- | --- | --- | --- | --- | --- | --- | --- |
| COc1cc(NCCCF)cc(OC)c1NC(=O)c1ccc(Oc2cc3c(cc2C)CCC3(C)C)o1 [[^18F]SB-002-RS, N-(4-((3-fluoropropyl)amino)-2,6-dimethoxyphenyl)-5-((3,3,6-trimethyl-2,3-dihydro-1H-inden-5-yl)oxy)furan-2-carboxamide] | 97 | 99 | 1.49 | 99.1 | 97.5 | – | – |
| COc1cc(OCCF)cc(OC)c1NC(=O)c1ccc(Oc2cc3c(cc2C)CCC3(C)C)o1 [[^18F]SB-004-RS, N-(4-(2-fluoroethoxy)-2,6-dimethoxyphenyl)-5-((3,3,6-trimethyl-2,3-dihydro-1H-inden-5-yl)oxy)furan-2-carboxamide] | 97.5 | 99 | 1.82 | >95 | 97.3 | – | – |
| COc1cc(OCCF)cc(OC)c1NC(=O)c1ccc(Cc2cc3c(cc2C)CCCC3(C)C)o1 [[^18F]SB-003-RS, N-(4-(2-fluoroethoxy)-2,6-dimethoxyphenyl)-5-((3,8,8-trimethyl-5,6,7,8-tetrahydronaphthalen-2-yl)methyl)furan-2-carboxamide] | 88.1 | 18.5 | 1.68 | >95 | 91.1 | – | – |
| COc1cc(OCCF)cc(OC)c1NC(=O)c1ccc(Cc2cc3c(cc2C)CCCC3(C)C)o1 [SB-003-RS, N-(4-(2-fluoroethoxy)-2,6-dimethoxyphenyl)-5-((3,8,8-trimethyl-5,6,7,8-tetrahydronaphthalen-2-yl)methyl)furan-2-carboxamide] | – | – | – | – | – | 0.6 ± 0.4 | – |
| COc1cc(NCCCF)cc(OC)c1NC(=O)c1ccc(Cc2cc3c(cc2C)CCCC3(C)C)o1 [SB-001-RS, N-(4-((3-fluoropropyl)amino)-2,6-dimethoxyphenyl)-5-((3,8,8-trimethyl-5,6,7,8-tetrahydronaphthalen-2-yl)methyl)furan-2-carboxamide] | – | – | – | – | – | 3.7 ± 2.3 | – |
| COc1nc([18F])nc(OC)c1NC(=O)c1ccc(Oc2cc3c(cc2C)CCC3(C)C)o1 [[^18F]SB7-65-19] | – | – | – | – | – | – | Ki [5]: 42 nM; CLog D (pH 7.4) ([6]; experimentally determined): 1.33; logP ([6]; pH 7.4): 1.4; half-life at 11.1 MBq/mL ([3]; rat, serum, hydrolysis of the amide bond, read-out: Serum stability t1/2): < 30 min; Brain uptake (in words) [7]: entered the brain and was clearly visibly by PET; also recorded: significant brain uptake; Brain (CNS) uptake ([7]; rat, at 10 minutes): 0.4 % ID/g |
| COc1cc(OCCF)cc(OC)c1NC(=O)c1ccc(Oc2cc3c(cc2C)CCC3(C)C)o1 [SB-004-RS, N-(4-(2-fluoroethoxy)-2,6-dimethoxyphenyl)-5-((3,3,6-trimethyl-2,3-dihydro-1H-inden-5-yl)oxy)furan-2-carboxamide] | – | – | – | – | – | 2.1 ± 2.1 | – |
| COc1cc(NCCCF)cc(OC)c1NC(=O)c1ccc(Oc2cc3c(cc2C)CCC3(C)C)o1 [SB-002-RS, N-(4-((3-fluoropropyl)amino)-2,6-dimethoxyphenyl)-5-((3,3,6-trimethyl-2,3-dihydro-1H-inden-5-yl)oxy)furan-2-carboxamide] | – | – | – | – | – | 1.5 ± 3.9 | – |
| COc1nc(OCC[18F])nc(OC)c1NC(=O)c1ccc(Oc2cc3c(cc2C)CCC3(C)C)o1 [[^18F]SB7-65-18] | – | – | – | – | – | – | Ki [5]: 1.36 nM; logP ([6]; pH 7.4): 1.3; logD ([6]; pH 7.4, experimentally determined, read-out: CLog D (pH 7.4)): 1.22; Stability in rat serum ([3]; rat serum, over 2 hours): stable; Brain uptake (in words) [7]: failed to show significant brain uptake |
| COc1cc(NCCCF)cc(OC)c1NC(=O)c1ccc(Cc2cc3c(cc2C)CCCC3(C)C)o1 [[^18F]SB-001-RS, N-(4-((3-fluoropropyl)amino)-2,6-dimethoxyphenyl)-5-((3,8,8-trimethyl-5,6,7,8-tetrahydronaphthalen-2-yl)methyl)furan-2-carboxamide] | 81 | 94.5 | 1.43 | >95 | 88.5 | – | – |
